From PMC13672995, “NCR13 peptide protects soybean against Cercospora sojina using multi-faceted modes of action and additive interaction with chemical fungicides” (Journal of Experimental Botany, 2025)
≈ marks a conversion by molar mass, not a printed value. Where two headings read alike, the source gives them in different places. Where a SMILES comes first, the peptide text is derived from it.

Experiments:
[1] = test system: C. sojina QoI fungicide-resistant isolate Cs350; format: cell-based, Cercospora sojina; conditions: for MIC (μM) against C. sojina, Fungicide resistant, Cs350: 48 h; for fold increase of MIC with increasing iron concentration: FeSO4 in SFM
Experimental: (§1) In vitro antifungal activity of AFPs and QoI fungicides was determined using 96-well plate assays as described ([Velivelli et al., 2020]) with slight modifications. Briefly, 2- to 3-week-old C. sojina was used to make a conidial suspension in 2× SFM at the final concentration of ∼10^5 conidia ml^−1. Simultaneously, peptide dilutions (in water) at various concentrations were made. Fungicides were dissolved in 50% acetone and 50% water to make a stock solution of 500 µM, and serial dilutions were made in water as needed. The peptide–conidia or the fungicide–conidia mixture at the ratio of 1:1 (45 µl:45 µl) was added in a 96-well plate and incubated at room temperature for 48 h, after which MICs of the peptides/fungicides were calculated based on microscopy as well as the resazurin cell viability assay ([Velivelli et al., 2020]).

[2] = test system: C. sojina QoI fungicide-sensitive isolate Cs320; test: microbe, parasite or virus in culture; format: cell-based, Cercospora sojina; conditions: for MIC (μM) against C. sojina isolates, Fungicide sensitive, Cs320 / MIC: 48 h; for MIC: Cercospora sojina, read-out: MIC (µM) against Fungicide sensitive C. sojina isolate (Cs320); for MIC (µM) against Fungicide sensitive C. sojina isolate (Cs320): QoI fungicides, determined in 2 days, 0.02 µM lowest concentration tested
Experimental: as §1

[3] = test system: C. sojina Cs350 (fungicide resistant); test: Peptide-fungicide checkerboard assay; format: cell-based, Cercospora sojina; conditions: for MIC: Cercospora sojina, SHAM 60 µg ml–1, microscopy, read-out: Individual MIC; for MIC / interaction with NCR13_PFV1 by FIC index: 96 h; for MIC / FIC score: Cs350, 4 d; for interaction with NCR13_PFV1 by FIC index: Cs350, in vitro
Experimental: Synergy between NCR13_PFV1 and the widely used QoI foliar fungicides, azoxystrobin (Sigma-Aldrich, Cat No: 31697), trifloxystrobin (Sigma-Aldrich, Cat No: 46447), and pyraclostrobin (Sigma-Aldrich, Cat No: 33696), were evaluated using checkerboard assays. This assay was performed in a 96-well plate and the preparation of conidial suspension, peptide dilutions, and fungicide dilutions were similar to the in vitro antifungal activity assay described above. The presence of an alternative respiration pathway allows some fungi including C. sojina to germinate even in the presence of a high dose of QoI fungicides in vitro ([Ziogas et al., 1997]; [Zhang et al., 2012]). Therefore, to prevent alternative respiration in C. sojina, salicylhydroxamic acid (SHAM) was added in each reaction at the final concentration of 60 µg ml^–1 ([Zhang et al., 2012]). The conidia, peptide, fungicide, and SHAM were added in a 96-well plate at the v/v ratio of 4:1:1:2 (50 µl:12.5 µl:12.5 µl:25 µl) in the final reaction volume of 100 µl, and the plate was incubated at room temperature for 96 h (4 d). After 96 h, MIC values of the peptide–fungicide combination, peptide alone, and fungicide alone were calculated based on microscopy as well as the resazurin cell viability assay. The fractional inhibitory concentration (FIC) index was calculated using the formula FIC = (MICA+B/MICA) + (MICB+A/MICB), where MICA and MICB are the MIC for peptide (A) alone and fungicide (B) alone, respectively, MICA+B is the MIC for peptide in combination with fungicide (A+B), and MICB+A is the MIC for fungicide in combination with peptide (B+A). The FIC index was interpreted as: synergistic, ≤0.5; additive, >0.5–1.0; indifferent, >1 to <4.0; or antagonistic, ≥4.0.

[4] = Peroxidase assay (TMB substrate); format: biochemical; conditions: heme 5 µM, peptide 5 µM, absorption at 370 nm and 652 nm
Experimental: A Pierce TMB substrate kit (Thermo Scientific) was used to measure the peroxidase activity of heme. In a transparent 96-well plate, 50 µl of TMB substrate and 50 µl of […] were added followed by addition of heme (5 µM) or peptides plus heme (5 µM each). The reaction progression was measured in the Tecan plate reader, by recording UV-vis absorption values at 370 nm and 652 nm for every minute up to 1 h.

[5] = Heme-peptide binding assay (colour change); conditions: equimolar heme and peptide, 100 µM, 1 h, room temperature
Experimental: Heme solutions were freshly prepared by dissolving hemin chloride (Sigma Cat No: 3741) in 0.1 M NaOH and used within an hour after preparation. Two heme-sequestering peptides, NCR247 and NCR455 ([Montiel et al., 2017]; [Sankari et al., 2022]), were used as positive controls, and water-only treatment as a negative control. The equimolar concentration of heme and peptide (100 µM) or water were mixed and incubated at room temperature for 1 h. When dissolved in NaOH, heme is light to dark brown in color; however, when it binds to a peptide, the color changes to reddish-brown as described by [Sankari et al. (2022)]. The change in color of heme to reddish-brown indicated the heme binding ability of the peptide.

[6] = pair pyraclostrobin / NCR13_PFV1

Compound: CC[C@H](C)[C@H](NC(=O)[C@H](CCCNC(=N)N)NC(=O)[C@H](CS)NC(=O)[C@H](CCCNC(=N)N)NC(=O)CNC(=O)[C@@H](N)CO)C(=O)N[C@@H](CC(C)C)C(=O)N[C@@H](Cc1ccccc1)C(=O)N[C@@H](CCCNC(=N)N)C(=O)N[C@@H](Cc1c[nH]c2ccccc12)C(=O)N[C@@H](Cc1ccccc1)C(=O)N[C@@H](Cc1c[nH]c2ccccc12)C(=O)N[C@H](C(=O)N[C@@H](CCCCN)C(=O)N[C@@H](CC(N)=O)C(=O)N[C@@H](CS)C(=O)O)[C@@H](C)O [GMA1C_V2] (H-SGRCRILFRWFWTKNC-OH)
- MIC (μM) against C. sojina, Fungicide resistant, Cs350 [1]: 6 µM (≈ 12.4 µg/mL)

Compound: CC[C@H](C)[C@H](NC(=O)[C@H](CCCNC(=N)N)NC(=O)[C@H](CS)NC(=O)[C@H](CCCNC(=N)N)NC(=O)CNC(=O)[C@@H](N)CO)C(=O)N[C@@H](CC(C)C)C(=O)N[C@@H](Cc1ccccc1)C(=O)N[C@@H](CCCNC(=N)N)C(=O)N[C@@H](Cc1c[nH]c2ccccc12)C(=O)N[C@@H](Cc1ccc(O)cc1)C(=O)N[C@@H](Cc1ccccc1)C(=O)N[C@H](C(=O)N[C@@H](CCCCN)C(=O)N[C@@H](CC(N)=O)C(=O)N[C@@H](CS)C(=O)O)[C@@H](C)O [GMA1C_V3] (H-SGRCRILFRWYFTKNC-OH)
- MIC (μM) against C. sojina, Fungicide resistant, Cs350 [1]: 6 µM (≈ 12.3 µg/mL)

Compound: CC[C@H](C)[C@H](NC(=O)[C@H](CCCNC(=N)N)NC(=O)[C@@H](NC(=O)[C@H](Cc1ccccc1)NC(=O)[C@H](Cc1c[nH]c2ccccc12)NC(=O)[C@H](Cc1ccccc1)NC(=O)[C@H](CCCNC(=N)N)NC(=O)[C@H](CCCNC(=N)N)NC(=O)[C@H](CC(C)C)NC(=O)[C@H](Cc1ccccc1)NC(=O)CNC(=O)[C@H](CCCCN)NC(=O)[C@H](CS)NC(=O)[C@H](CCCNC(=N)N)NC(=O)CNC(=O)CN)[C@@H](C)O)C(=O)N[C@@H](CS)C(=O)O [GMA4CG_V7] (H-GGRCKGFLRRFWFTRIC-OH)
- MIC (μM) against C. sojina, Fungicide resistant, Cs350 [1]: 6 µM (≈ 12.6 µg/mL)

Compound: CC[C@H](C)[C@H](NC(=O)[C@H](CCCNC(=N)N)NC(=O)[C@@H](NC(=O)[C@H](Cc1c[nH]c2ccccc12)NC(=O)[C@H](Cc1ccc(O)cc1)NC(=O)[C@H](Cc1c[nH]c2ccccc12)NC(=O)[C@H](CCCNC(=N)N)NC(=O)[C@H](CCCNC(=N)N)NC(=O)[C@H](CC(C)C)NC(=O)[C@H](Cc1ccccc1)NC(=O)CNC(=O)[C@H](CCCCN)NC(=O)[C@H](CS)NC(=O)[C@H](CCCNC(=N)N)NC(=O)CNC(=O)CN)[C@@H](C)O)C(=O)N[C@@H](CS)C(=O)O [GMA4CG_V8] (H-GGRCKGFLRRWYWTRIC-OH)
- MIC (μM) against C. sojina, Fungicide resistant, Cs350 [1]: 6 µM (≈ 13 µg/mL)

Compound: C[C@H](NC(=O)CN)C(=O)N[C@@H](CS)C(=O)N[C@@H](Cc1c[nH]cn1)C(=O)N[C@@H](CCCNC(=N)N)C(=O)N[C@@H](CCC(N)=O)C(=O)NCC(=O)N[C@@H](Cc1ccccc1)C(=O)NCC(=O)N[C@@H](Cc1ccccc1)C(=O)N[C@@H](C)C(=O)N[C@@H](Cc1c[nH]c2ccccc12)C(=O)N[C@@H](Cc1ccccc1)C(=O)N[C@@H](Cc1c[nH]c2ccccc12)C(=O)N[C@@H](Cc1ccc(O)cc1)C(=O)N[C@@H](CCCCN)C(=O)N[C@@H](CCCCN)C(=O)N[C@@H](CS)C(=O)O [GMA5AC_V1] (H-GACHRQGFGFAWFWYKKC-OH; N-terminus and C-terminus assumed)
- MIC (μM) against C. sojina, Fungicide resistant, Cs350 [1]: 6 µM (≈ 13.2 µg/mL)

Compound: C[C@H](NC(=O)CN)C(=O)N[C@@H](CS)C(=O)N[C@@H](Cc1c[nH]cn1)C(=O)N[C@@H](CCCNC(=N)N)C(=O)N[C@@H](CCC(N)=O)C(=O)NCC(=O)N[C@@H](Cc1ccccc1)C(=O)NCC(=O)N[C@@H](Cc1ccccc1)C(=O)N[C@@H](C)C(=O)N[C@@H](Cc1ccccc1)C(=O)N[C@@H](Cc1ccccc1)C(=O)N[C@@H](Cc1ccccc1)C(=O)N[C@@H](Cc1ccc(O)cc1)C(=O)N[C@@H](CCCCN)C(=O)N[C@@H](CCCCN)C(=O)N[C@@H](CS)C(=O)O [GMA5AC_V2] (H-GACHRQGFGFAFFFYKKC-OH; N-terminus and C-terminus assumed)
- MIC (μM) against C. sojina, Fungicide resistant, Cs350 [1]: 6 µM (≈ 12.7 µg/mL)

Compound: CC(C)C[C@H](NC(=O)[C@H](CS)NC(=O)[C@H](C)NC(=O)CN)C(=O)N[C@@H](CCCCN)C(=O)N[C@@H](CC(N)=O)C(=O)N[C@@H](CCCNC(=N)N)C(=O)N[C@@H](Cc1c[nH]cn1)C(=O)N[C@@H](CO)C(=O)N[C@@H](CCCCN)C(=O)N[C@@H](Cc1c[nH]cn1)C(=O)N[C@@H](Cc1ccc(O)cc1)C(=O)NCC(=O)N[C@@H](Cc1c[nH]c2ccccc12)C(=O)N[C@@H](Cc1ccccc1)C(=O)N[C@@H](Cc1c[nH]c2ccccc12)C(=O)N[C@@H](Cc1ccc(O)cc1)C(=O)N[C@@H](Cc1ccc(O)cc1)C(=O)N[C@@H](CCCNC(=N)N)C(=O)N[C@@H](Cc1c[nH]cn1)C(=O)N[C@@H](CS)C(=O)N[C@@H](Cc1ccc(O)cc1)C(=O)O [GMAOe1C_V1] (H-GACLKNRHSKHYGWFWYYRHCY-OH; N-terminus and C-terminus assumed)
- MIC (μM) against C. sojina, Fungicide resistant, Cs350 [1]: 3 to 6 µM

Compound: CC(C)[C@H](NC(=O)[C@H](CCCCN)NC(=O)[C@@H]1CCCN1C(=O)[C@H](CCCCN)NC(=O)[C@H](CCCNC(=N)N)NC(=O)[C@H](CS)NC(=O)[C@H](C)NC(=O)[C@H](Cc1ccccc1)NC(=O)[C@H](CCCCN)NC(=O)[C@@H](N)CCCCN)C(=O)N1CCC[C@H]1C(=O)N[C@@H](CCCCN)C(=O)N[C@@H](CS)C(=O)O [NCR13_V7] (H-KKFACRKPKVPKC-OH; N-terminus and C-terminus assumed)
- MIC (μM) against C. sojina, Fungicide resistant, Cs350 [1]: 12 µM (≈ 18.4 µg/mL)
- fold increase of MIC with increasing iron concentration [1]: 2 fold
- MIC (μM) against C. sojina isolates, Fungicide sensitive, Cs320 [2]: 6 µM (≈ 9.2 µg/mL)

Compound: N=C(N)NCCC[C@H](NC(=O)[C@H](CS)NC(=O)[C@H](Cc1c[nH]c2ccccc12)NC(=O)[C@H](Cc1ccccc1)NC(=O)[C@H](CCCCN)NC(=O)[C@@H](N)CCCCN)C(=O)N[C@@H](CCCCN)C(=O)N1CCC[C@H]1C(=O)N[C@@H](CCCCN)C(=O)N[C@@H](Cc1c[nH]c2ccccc12)C(=O)N1CCC[C@H]1C(=O)N[C@@H](CCCCN)C(=O)N[C@@H](CS)C(=O)O [NCR13_V9] (H-KKFWCRKPKWPKC-OH; N-terminus and C-terminus assumed)
- MIC (μM) against C. sojina, Fungicide resistant, Cs350 [1]: 6 µM (≈ 10.4 µg/mL)
- fold increase of MIC with increasing iron concentration [1]: 2 fold
- MIC (μM) against C. sojina isolates, Fungicide sensitive, Cs320 [2]: 3 µM (≈ 5.21 µg/mL)

Compound: COC(=O)N(OC)c1ccccc1COc1ccn(-c2ccc(Cl)cc2)n1 [Pyraclostrobin, pyraclostrobin]
- MIC [3, 6]: 24 µM
- interaction with NCR13_PFV1 by FIC index [3]: additive (additive, >0.5–1.0)
- FIC score [3, 6]: ≤ 1
- MIC [2]: < 0.02 µM
- MIC (µM) against Fungicide sensitive C. sojina isolate (Cs320) [2]: <0.02 µM

Compound: CON=C(C(=O)OC)c1ccccc1CON=C(C)c1cccc(C(F)(F)F)c1 [Trifloxystrobin, trifloxystrobin]
- MIC ([3]; pair trifloxystrobin / NCR13_PFV1, highest fungicide concentration 48 µM): > 48 µM
- interaction with NCR13_PFV1 by FIC index [3]: additive (additive, >0.5–1.0)
- FIC score ([3]; pair trifloxystrobin / NCR13_PFV1): ≤ 1
- MIC [2]: < 0.02 µM
- MIC (µM) against Fungicide sensitive C. sojina isolate (Cs320) [2]: <0.02 µM

Compound: RNGCIVDARCPYQKCSYPLYCRRR [NCR455, reference compound]
- peroxidase activity of heme and FeSO4 in the presence of peptide [4]: reduced or stopped
- heme binding (colour change of heme from brown to reddish-brown) [5]: visible color change of heme from brown to reddish-brown
